In data set [1] the test system is HL-60 cells (human leukemia cells). Kind of data set: Apoptosis induction in HL-60 cells, propidium iodide (Example 9). Format: cell-based. The conditions noted are these: 20 μM, incubation for 6 hours; control 9.3. How it is done: HL-60 cells (human leukemia cells) were suspended in an RPMI-1640 with 10% fetal bovine serum added thereto, and the number of cells was counted. The suspension was adjusted to have a density of 5×10^5 cells/mL. Each 2 mL of the suspension was dispensed into Petri dishes. SBS prepared in Preparation Example 3 was diluted with dimethyl sulfoxide to 2 mM, and each 20 μL of the suspension was added thereto to have a final concentration of 20 μM. Only dimethyl sulfoxide was added to a control. Incubation was performed for 6 hours under the conditions of 37° C. and 5% CO2, and the cells were recovered, and washed with a phosphate buffered saline (PBS) by centrifugation. Four-percent paraformaldehyde was added to the cells, and the cells were allowed to stand at room temperature for 30 minutes to be fixed. After centrifugation, the supernatant was removed, and a PBS was added thereto, and the mixture was centrifuged and washed, and the cells were suspended in 200 μL of a PBS. Five-hundred microliters of 0.05 mg/mL propidium iodide was added thereto, and the mixture was incubated at 4° C. for 10 minutes. Thereafter, the number of whole cells and the number of cells which had undergone apoptosis were measured, and a ratio of induction of apoptosis was calculated according to the following equation (Table 11). […]

In data set [2] the test system is IMC carcinoma tumor cells. Kind of data set: IMC solid tumor growth in CDF1 mice, SBS orally (Example 10). It counts as in vivo. The conditions noted are these: about 15.6 mg/kg/day orally in peanut oil with 10% ethanol; three weeks after transplantation of IMC. From the text: As ICR mice (Japan SLC, Inc.), 5-week old female mice were purchased, and the animals were used at 6 weeks old. Sarcoma-180 (hereinafter, S-180) tumor cells were transplanted into an abdominal cavity of the ICR mice to give an ascites, and the ascites was passaged by transplanting into other mice every 7 days. An ascites on day 7 after passage was collected, washed with a phosphate buffered saline by centrifugation, and suspended in the same buffer. The number of cells was counted, and the suspension was adjusted to have a density of 5×10^7 cells/mL. Into ICR mice at right abdominal part was subcutaneously transplanted 0.1 mL of the cell suspension, and the size of a solid tumor after 7 days was measured. […] The size of the tumor was measured after four weeks from transplantation of S-180. In addition, as the size of the tumor, a length and a width were measured, to obtain the volume according to the following equation, followed by comparison. […]
The tumor-suppressing activity was calculated according to the following equation. […]
As CDF1 mice (Japan SLC, Inc.), 6-week old female mice were purchased, and the animals were used at 7 weeks olds. […] The number of cells was counted. […] Seven days after transplantation, take of a tumor was confirmed, and the size of a solid tumor was measured. […]

Data set [3] is described as follows: Toxicity on oral administration to mice. Format: in vivo. To be noted: orally administered, 25 mg/mouse/day.

The record followed here is patent US20080038289A1, “Antitumor Agent” (priority 2004, published 2008).

Structures are written as SMILES.

Turning to `C=CC(C)(O)CC/C=C(\C)CCCC(C)(O)CCCC(C)(O)CCCC(C)(O)CCCC(C)(O)CCCC(C)(O)CCCC(C)(O)CCC=C(C)C` (stereo not shown) [SBS, hypsiziprenol A9], the “Apoptosis-Inducing Ratio (%)” value in data set [1] is recorded as 30.1%. Also, in data set [2], the “Tumor Volume (Mean ± SD)” value is 534.5 ± 92.3 mm^3 and the “Tumor-Suppressing Activity (%)” value came to 46.2%. In data set [3], the toxicity entry was “toxicity is not observed”.
